In patent US7932262B2 (Novartis AG, priority 2006, dated 2011):
Where two headings read alike, the source gives them in different places.

Assays:
PC3MM cells = experiment: Cell Proliferation Assay (Cell Titer Glo), PC3MM; type: cell-based; settings: read-out: CPEC50 PC3MM
Procedure: IV. Cell Proliferation Assay Protocol:
A2780, PC-3, or PC3MM cells were seeded at 1000 cells/well in 100 μL/well (10.000 cells/mL) growth media in 96-well plates. Cells were allowed to adhere to the bottom of plates for 3-5 hours in a 37° C. 5% CO2 incubator. Compounds were dissolved in DMSO and then transferred to the cell plates. The cells were incubated with the compounds for 3 days in a 37° C. 5% CO2 incubator. The growth medium containing the compounds was then removed from the cells and fresh medium was added, followed by 100 μL of Cell Titer Glo assay reagent (Promega). This mixture was shaken for 1 minute and then incubated without shaking for 10 minutes. Activity determinations for the compounds were made by detection on a Trilux Instrument.

A2780 cells = experiment: Cell Proliferation Assay (Cell Titer Glo), A2780; type: cell-based; settings: Homo sapiens, read-out: CPEC50 A2780
Outline: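 Cells seeded at 1000/well, allowed to adhere 3-5 h, then exposed to DMSO-dissolved compounds for 3 days at 37° C., 5% CO2. Medium replaced before Cell Titer Glo addition; luminescence read after 10 min.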

PDK1 kinase = biological target: T1, PDK1 kinase (Homo sapiens, UniProt O15530); experiment: PDK1 Kinase Alpha Screen Assay; type: biochemical
T1 sequence (O15530 1-556): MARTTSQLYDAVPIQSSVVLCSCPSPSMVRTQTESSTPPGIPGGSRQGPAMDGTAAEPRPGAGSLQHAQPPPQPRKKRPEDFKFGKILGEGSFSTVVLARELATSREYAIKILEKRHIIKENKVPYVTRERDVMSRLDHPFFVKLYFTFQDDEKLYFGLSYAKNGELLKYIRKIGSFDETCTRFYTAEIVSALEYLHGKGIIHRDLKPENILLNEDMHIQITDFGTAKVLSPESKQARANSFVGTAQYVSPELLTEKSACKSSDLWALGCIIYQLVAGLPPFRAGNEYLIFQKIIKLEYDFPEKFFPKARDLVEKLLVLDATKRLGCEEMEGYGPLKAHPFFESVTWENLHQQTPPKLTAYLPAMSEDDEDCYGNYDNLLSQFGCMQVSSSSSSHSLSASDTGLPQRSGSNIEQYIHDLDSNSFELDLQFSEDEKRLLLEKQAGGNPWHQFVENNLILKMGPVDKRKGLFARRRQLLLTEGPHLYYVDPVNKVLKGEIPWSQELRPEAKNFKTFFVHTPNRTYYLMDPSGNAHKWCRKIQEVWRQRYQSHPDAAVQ
Outline: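 Compound in DMSO added to PDK1-4 peptide; PDK1/ATP mix starts reaction (final 50 nM peptide, 10 uM ATP). Runs 3-18 hours, stopped with 90 mM EDTA buffer. Antibody/bead mix added, developed overnight at room temperature, then AlphaScreen signal read.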

[1] = Cell Proliferation Assay, PC3MM
[2] = Cell Proliferation Assay, A2780
[3] = PDK1 Kinase Alpha Screen Assay, read-out: PDK1 IC50
[4] = Cell Proliferation Assay, PC3MM cells
[5] = cell proliferation, PC3MM cells
[6] = cell proliferation, A2780 cells

EC50 (PC3MM cells; [1]) [µM] | IC50 (PDK1 kinase; [3]) [µM] | EC50 (PC3MM cells; [5]) [µM] | EC50 (A2780 cells; [6]) [µM] | SMILES | other results
< 5 | < 5 |  |  | c1cc(N2CCOCC2)ccc1Nc1ncc2cc(-c3cnoc3)c(OC3CCNCC3)cc2n1 [Compound 652, 6-(isoxazol-4-yl)-N-(4-morpholinophenyl)-7-(piperidin-4-yloxy)quinazolin-2-amine] | EC50 (A2780 cells; [2]): < 5 µM
< 5 | < 5 |  |  | CN1CCC(Oc2cc3nc(Nc4ccc(N5CCOCC5)cc4)ncc3cc2-c2nccs2)CC1 [Compound 653, 7-(1-methylpiperidin-4-yloxy)-N-(4-morpholinophenyl)-6-(thiazol-2-yl)quinazolin-2-amine] | EC50 (A2780 cells; [2]): < 5 µM
5 to 10 | < 5 |  |  | CN1CCC(Oc2cc3nc(Nc4cc(C(N)=O)cc(N5CCOCC5)c4)ncc3cc2-c2cn[nH]c2)CC1 [Compound 677, 3-(7-(1-methylpiperidin-4-yloxy)-6-(1H-pyrazol-4-yl)quinazolin-2-ylamino)-5-morpholinobenzamide] | 
< 5 | < 5 |  |  | CN1CCC(Oc2cc3nc(Nc4cc(C(N)=O)cc(N5CCOCC5)c4)ncc3cc2-c2nccs2)CC1 [Compound 678, 3-(7-(1-methylpiperidin-4-yloxy)-6-(thiazol-2-yl)quinazolin-2-ylamino)-5-morpholinobenzamide] | 
5 to 10 | < 5 |  |  | C#Cc1cc2cnc(Nc3cc(C(N)=O)cc(N4CCOCC4)c3)nc2cc1OC1CCNCC1 [Compound 679, 3-(6-ethynyl-7-(piperidin-4-yloxy)quinazolin-2-ylamino)-5-morpholinobenzamide] | 
5 to 10 | < 5 |  |  | NC(=O)c1cc(Nc2ncc3cc(-c4cnoc4)c(OC4CCNCC4)cc3n2)cc(N2CCOCC2)c1 [Compound 680, 3-(6-(isoxazol-4-yl)-7-(piperidin-4-yloxy)quinazolin-2-ylamino)-5-morpholinobenzamide] | 
5 to 10 | < 5 |  |  | CN1CCC(Oc2cc3nc(Nc4ccc5nc(C(F)(F)F)[nH]c5c4)ncc3cc2-c2nccs2)CC1 [Compound 681, 7-(1-methylpiperidin-4-yloxy)-6-(thiazol-2-yl)-N-(2-(trifluoromethyl)-1H-benzo[d]imidazol-6-yl)quinazolin-2-amine] | 
< 5 | < 5 |  |  | COc1cc(Nc2ncc3cc(-c4nccs4)c(OC4CCNCC4)cc3n2)cc(-n2nnnc2C)c1 [Compound 682, N-(3-methoxy-5 (5-methyl-1H-tetrazol-1-yl)phenyl)-7-(piperidin-4-yloxy)-6-(thiazol-2-yl)quinazolin-2-amine] | 
< 5 | < 5 |  |  | CC(=O)N1CCC(Oc2cc3nc(Nc4ccc(N5CCOCC5)cc4)ncc3cc2-c2nccs2)CC1 [Compound 690, 1-(4-(2-(4-morpholinophenylamino)-6-(thiazol-2-yl)quinazolin-7-yloxy)piperidin-1-yl)ethanone] | 
 | < 5 |  |  | COc1c(-c2cnn(CC(C)C)c2)ccc2cnc(Nc3cc(CN4CCOCC4)cc(NC(C)=O)c3)nc12 [Compound 715, N-(3-(7-(1-isobutyl-1H-pyrazol-4-yl)-8-methoxyquinazolin-2-ylamino)-5-(morpholinomethyl)phenyl)acetamide] | EC50 (PC3MM cells; [4]): < 5 µM
 | < 5 |  |  | COC(=O)Nc1cc(CN2CCOCC2)cc(Nc2ncc3ccc(-c4cnn(CCC(C)C)c4)c(OC)c3n2)c1 [Compound 716, methyl 3-(7-(1-isopentyl-1H-pyrazol-4-yl)-8-methoxyquinazolin-2-ylamino)-5-(morpholinomethyl)phenyl carbamate] | EC50 (PC3MM cells; [4]): < 5 µM
 | < 5 | < 5 | < 5 | NC(=O)c1ccc(Nc2ncc3cccc(OC4CCNCC4)c3n2)cc1 [Compound 717, 4-(8-(piperidin-4-yloxy)quinazolin-2-ylamino)benzamide] | 
 | < 5 | < 5 | < 5 | NS(=O)(=O)c1ccc(Nc2ncc3cccc(O[C@H]4CCNC4)c3n2)cc1 [Compound 721, (S)-4-(8-(pyrrolidin-3-yloxy)quinazolin-2-ylamino)benzenesulfonamide] | 
 | < 5 | < 5 | < 5 | CN1CC[C@H](Oc2cccc3cnc(Nc4ccc(S(N)(=O)=O)cc4)nc23)C1 [Compound 723, (S)-4-(8-(1-methylpyrrolidin-3-yloxy)quinazolin-2-ylamino)benzenesulfonamide] | 
 | < 5 | < 5 | < 5 | CN1CCC(Oc2cccc3cnc(Nc4ccc(S(N)(=O)=O)cc4)nc23)CC1 [Compound 724, 4-(8-(1-methylpiperidin-4-yloxy)quinazolin-2-ylamino)benzenesulfonamide] | 
 | < 5 | < 5 | < 5 | NS(=O)(=O)c1ccc(Nc2ncc3cccc(O[C@@H]4CCNC4)c3n2)cc1 [Compound 726, (R)-4-(8-(pyrrolidin-3-yloxy)quinazolin-2-ylamino)benzenesulfonamide] | 
 | < 5 | < 5 | < 5 | CN1CC[C@@H](Oc2cccc3cnc(Nc4ccc(S(N)(=O)=O)cc4)nc23)C1 [Compound 727, (R)-4-(8-(1-methylpyrrolidin-3-yloxy)quinazolin-2-ylamino)benzenesulfonamide] | 
 | < 5 | < 5 | 5 to 10 | CC(=O)c1ccc(-c2cccc3cnc(Nc4ccc(S(N)(=O)=O)cc4)nc23)cc1 [Compound 731, 4-(8-(4-acetylphenyl)quinazolin-2-ylamino)benzenesulfonamide] | 
 | < 5 | < 5 | < 5 | NS(=O)(=O)c1ccc(Nc2ncc3cccc(-c4ccc(-c5ccn[nH]5)cc4)c3n2)cc1 [Compound 732, 4-(8-(4-(1H-pyrazol-5-yl)phenyl)quinazolin-2-ylamino)benzenesulfonamide] | 
 | < 5 | < 5 |  | NC(=O)c1ccccc1-c1ccc2cnc(Nc3ccc(S(N)(=O)=O)cc3)nc2c1 [Compound 784, 2-(2-(4-sulfamoylphenylamino)quinazolin-7-yl)benzamide] | 
 | 5 to 10 | 5 to 10 |  | CC(=O)Nc1cccc(-c2ccc3cnc(Nc4ccc(S(N)(=O)=O)cc4)nc3c2)c1 [Compound 785, N-(3-(2-(4-sulfamoylphenylamino)quinazolin-7-yl)phenyl)acetamide] | 
 | < 5 | < 5 |  | CS(=O)(=O)c1cccc(-c2ccc3cnc(Nc4ccc(S(N)(=O)=O)cc4)nc3c2)c1 [Compound 787, 4-(7-(3-(methylsulfonyl)phenyl)quinazolin-2-ylamino)benzenesulfonamide] | 
 | 10 to 25 | 10 to 25 |  | CS(=O)(=O)Nc1cccc(-c2ccc3cnc(Nc4ccc(S(N)(=O)=O)cc4)nc3c2)c1 [Compound 788, 4-(7-(3-(methylsulfonamido)phenyl)quinazolin-2-ylamino)benzenesulfonamide] | 
 |  |  |  | COC(=O)Nc1cc(CN2CCOCC2)cc(Nc2ncc3ccc(-c4cnn(CCC(C)C)c4)c(OC)c3n2)c1 [Compound 1042, methyl 3-(7-(1-isopentyl-1H-pyrazol-4-yl)-8-methoxyquinazolin-2-ylamino)-5-(morpholinomethyl)phenylcarbamate] | EC50 (PC3MM cells; PC3MM cells): < 5 µM; IC50 (PDK1 kinase; head of the second part of Table 4: BV11261, read-out: PDK1 BV11261): < 5 µM

SMILES | EC50 (PC3MM cells; [1]) [µM] | IC50 (PDK1 kinase; [3]) [µM] | EC50 (PC3MM cells; [5]) [µM] | EC50 (A2780 cells; [6]) [µM] | other results
NS(=O)(=O)c1ccc(Nc2ncc3cccc(OC4CN5CCC4CC5)c3n2)cc1 (stereo not shown) [Compound 722, 4-(8-(quinuclidin-3-yloxy)quinazolin-2-ylamino)benzenesulfonamide] |  | < 5 | < 5 | < 5 | 
